Measured values published in patent US20100092480A1, “MODULATORS OF PROTEIN PHOSPHATASE 2A” (priority 2006, published 2010).
Starred links: 1 amine or outer side, 2 acyl side, 3 side chain; linkers in the order of their positions; H or OH if unused. Positions of bridges follow the written chain, without caps; N, C: chain ends. Non-standard residues stand in square brackets, D forms with d. Residues, ends and D or L forms follow the SMILES beside them. Adda = CO[C@@H](Cc1ccccc1)[C@@H](C)/C=C(C)/C=C/[C@H](N[*:1])[C@H](C)C(=O)[*:2]; dAsp(3S-Me) = C[C@H](C(=O)[*:3])[C@@H](N[*:1])C(=O)[*:2]; d(γGlu) = O=C(O)[C@@H](CCC(=O)[*:2])N[*:1]; NMeDha = C=C(NC)C(=O)O

How the values were obtained:
PP2A = PP2A (Homo sapiens, UniProt P67775); conditions: cited from earlier work
PP2A core = PP2A core (Homo sapiens, UniProt P67775); type: biochemical; conditions: stoichiometric amounts of inhibitor
Chain of PP2A core (P67775 whole entry): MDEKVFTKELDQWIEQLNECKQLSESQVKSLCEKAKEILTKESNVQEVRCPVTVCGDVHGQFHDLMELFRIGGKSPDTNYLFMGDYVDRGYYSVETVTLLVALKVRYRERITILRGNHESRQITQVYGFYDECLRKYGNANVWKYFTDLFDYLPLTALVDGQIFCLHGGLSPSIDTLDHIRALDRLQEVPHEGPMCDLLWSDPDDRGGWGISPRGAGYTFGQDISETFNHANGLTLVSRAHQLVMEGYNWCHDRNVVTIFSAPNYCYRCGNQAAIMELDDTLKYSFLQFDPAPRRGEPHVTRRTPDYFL
Chain of PP2A core (P30153 whole entry, further chain): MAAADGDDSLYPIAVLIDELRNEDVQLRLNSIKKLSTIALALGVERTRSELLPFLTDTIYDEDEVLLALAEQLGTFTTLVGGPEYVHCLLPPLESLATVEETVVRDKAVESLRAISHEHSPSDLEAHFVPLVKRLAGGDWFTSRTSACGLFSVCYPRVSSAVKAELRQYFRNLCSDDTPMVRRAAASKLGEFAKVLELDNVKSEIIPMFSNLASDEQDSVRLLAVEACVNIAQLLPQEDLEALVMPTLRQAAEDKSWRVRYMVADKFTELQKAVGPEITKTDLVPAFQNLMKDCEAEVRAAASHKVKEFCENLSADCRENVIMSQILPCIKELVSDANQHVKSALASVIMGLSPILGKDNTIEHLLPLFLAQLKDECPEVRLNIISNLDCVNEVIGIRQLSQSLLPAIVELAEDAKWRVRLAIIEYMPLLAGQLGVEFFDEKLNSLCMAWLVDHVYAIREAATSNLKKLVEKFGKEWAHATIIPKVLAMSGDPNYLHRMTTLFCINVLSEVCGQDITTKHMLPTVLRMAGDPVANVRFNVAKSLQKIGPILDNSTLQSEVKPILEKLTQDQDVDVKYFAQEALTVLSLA

Chain of PP2A (P67775 whole entry): as the sequence (P67775 whole entry) above

Row | Compound | inhibition of the activity of PP2A (PP2A) | inhibition of phosphatase activity of the assembled, purified PP2A core (PP2A core) | IC50 (PP2A; PP2A, read-out: inhibitory constant (IC50)) [nM]
1 | C=C1C(=O)N[C@H](C)C(=O)N[C@@H](CC(C)C)C(=O)N[C@@H](C(=O)O)[C@H](C)C(=O)N[C@@H](CCCNC(=N)N)C(=O)N[C@@H](/C=C/C(C)=C/[C@H](C)[C@H](Cc2ccccc2)OC)[C@H](C)C(=O)N[C@@H](C(=O)O)CCC(=O)N1C [MCLR, microcystin-LR] (R[Adda][d(γGlu)][NMeDha][dA]L[dAsp(3S-Me)]-OH; lactam N-7) | potently inhibit | – | –
2 | C=C1[C@@H](O)[C@@H]2O[C@]3(CC[C@H](/C=C/[C@@H](C)[C@@H]4CC(C)=C[C@@]5(O[C@H](C[C@@](C)(O)C(=O)O)CC[C@H]5O)O4)O3)CC[C@H]2O[C@@H]1[C@@H](O)C[C@H](C)[C@H]1O[C@@]2(CCCCO2)CC[C@H]1C [OA, okadaic acid] | – | efficiently inhibited | ~0.1
